Experimental data: ChEMBL document CHEMBL1138996, “Biological evaluation of isothiazoloquinolones containing aromatic heterocycles at the 7-position: In vitro activity of a series of potent antibacterial agents that are effective against methicillin-resistant Staphylococcus aureus” (Bioorg Med Chem Lett, 2006)
Converted amounts (≈) assume the structure as drawn.

How the values were obtained:
[1] = biological target: DNA topoisomerase 4 subunit A (Staphylococcus aureus, UniProt P0C1U9); test: Inhibitory activity against Staphylococcus aureus ATCC 29213 wild type Topo 4
Sequence of DNA topoisomerase 4 subunit A (P0C1U9 whole entry): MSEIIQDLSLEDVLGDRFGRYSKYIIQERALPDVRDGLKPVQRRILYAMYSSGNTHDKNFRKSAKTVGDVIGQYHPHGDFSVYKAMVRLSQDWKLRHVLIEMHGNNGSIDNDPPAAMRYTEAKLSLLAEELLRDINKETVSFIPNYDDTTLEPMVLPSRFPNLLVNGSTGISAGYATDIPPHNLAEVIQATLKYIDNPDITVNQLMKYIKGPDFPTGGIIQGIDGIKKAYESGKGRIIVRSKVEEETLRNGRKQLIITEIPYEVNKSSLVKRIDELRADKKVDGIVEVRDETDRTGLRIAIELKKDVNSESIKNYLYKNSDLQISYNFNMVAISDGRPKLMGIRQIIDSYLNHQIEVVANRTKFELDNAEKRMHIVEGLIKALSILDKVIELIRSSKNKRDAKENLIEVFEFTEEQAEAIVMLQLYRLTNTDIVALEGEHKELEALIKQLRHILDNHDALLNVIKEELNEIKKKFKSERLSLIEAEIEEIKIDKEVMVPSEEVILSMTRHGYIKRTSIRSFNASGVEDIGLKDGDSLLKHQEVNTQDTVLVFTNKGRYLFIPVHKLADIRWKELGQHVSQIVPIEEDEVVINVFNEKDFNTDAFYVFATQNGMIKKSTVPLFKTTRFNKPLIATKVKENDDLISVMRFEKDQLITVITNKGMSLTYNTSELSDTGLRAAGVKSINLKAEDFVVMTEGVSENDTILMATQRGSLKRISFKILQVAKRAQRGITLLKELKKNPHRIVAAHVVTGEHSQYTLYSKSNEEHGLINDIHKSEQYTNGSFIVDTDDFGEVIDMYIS

[2] = tested on: Staphylococcus aureus; test: Antibacterial activity against Staphylococcus aureus ATCC 29213; type: functional
[3] = tested on: Escherichia coli; test: Antibacterial activity against Escherichia coli ATCC 25922; type: functional
[4] = tested on: HEp-2; test: Cytotoxicity against Hep2 cell line; type: functional; conditions: Homo sapiens
[5] = tested on: Staphylococcus aureus; test: Antibacterial activity against methicillin-resistant Staphylococcus aureus ATCC 700699; type: functional
[6] = tested on: Enterococcus faecium; test: Antibacterial activity against Enterococcus faecium ATCC 49032; type: functional
[7] = tested on: Klebsiella pneumoniae; test: Antibacterial activity against Klebsiella pneumoniae ATCC 13883; type: functional
[8] = tested on: Streptococcus pyogenes; test: Antibacterial activity against Streptococcus pyogenes ATCC 19615; type: functional
[9] = tested on: Moraxella catarrhalis; test: Antibacterial activity against Moraxella catarrhalis ATCC 8176; type: functional
[10] = tested on: Enterococcus faecalis; test: Antibacterial activity against Enterococcus faecalis ATCC 29212; type: functional
[11] = tested on: Haemophilus influenzae; test: Antibacterial activity against Haemophilus influenzae type b ACH-0056; type: functional
[12] = tested on: Pseudomonas aeruginosa; test: Antibacterial activity against Pseudomonas aeruginosa ATCC 27853; type: functional
[13] = tested on: Streptococcus pneumoniae; test: Antibacterial activity against Streptococcus pneumoniae ATCC 49619; type: functional
[14] = tested on: Stenotrophomonas maltophilia; test: Antibacterial activity against Stenotrophomonas maltophilia ATCC 13637; type: functional
[15] = tested on: Salmonella typhimurium; test: Antibacterial activity against Salmonella Typhimurium ATCC 14028; type: functional, Salmonella enterica subsp. enterica serovar Typhimurium; conditions: Salmonella enterica

Structure (SMILES)	IC50 [1] [µM]	MIC [2] [µg/mL]	MIC [3] [µg/mL]	CC50 [4] [µM]	MIC [5] [µg/mL]	MIC [6] [µg/mL]	MIC [7] [µg/mL]	MIC [8] [µg/mL]	MIC [9] [ng/mL]	MIC [10] [µg/mL]	MIC [11] [µg/mL]	MIC [12] [µg/mL]	MIC [13] [µg/mL]	MIC [14] [µg/mL]	MIC [15] [µg/mL]
O=c1[nH]sc2c1c(=O)c1cc(F)c(-c3cnccn3)cc1n2C1CC1	64	0.12 (≈ 0.339 µM)	1 (≈ 2.82 µM)	> 91	> 64										
O=c1[nH]sc2c1c(=O)c1cc(F)c(-c3ccc4cnccc4c3)cc1n2C1CC1	3.6	0.002 (≈ 0.00496 µM)	0.13 (≈ 0.322 µM)	22	0.5 (≈ 1.24 µM)										
Cc1cc(-c2cc3c(cc2F)c(=O)c2c(=O)[nH]sc2n3C2CC2)ccn1	26	0.004 (≈ 0.0109 µM)	0.059 (≈ 0.161 µM)	36	0.5 (≈ 1.36 µM)	0.25 (≈ 0.68 µM)	0.125 (≈ 0.34 µM)	0.04 (≈ 0.109 µM)	3.7 (≈ 0.0101 µM)	0.125 (≈ 0.34 µM)	0.015 (≈ 0.0408 µM)	2 (≈ 5.44 µM)	0.029 (≈ 0.0789 µM)	1 (≈ 2.72 µM)	0.125 (≈ 0.34 µM)
O=c1[nH]sc2c1c(=O)c1cc(F)c(-c3cncc(C4CCCN4)c3)cc1n2C1CC1 (centres undefined)	1.1	0.06 (≈ 0.142 µM)	0.12 (≈ 0.284 µM)	25	8 (≈ 18.9 µM)										
O=c1[nH]sc2c1c(=O)c1cc(F)c(-c3cccnc3)cc1n2C1CC1	0.5	0.0071 (≈ 0.0201 µM)	0.0035 (≈ 0.0099 µM)	> 100	2 (≈ 5.66 µM)										
O=c1[nH]sc2c1c(=O)c1cc(F)c(-c3ccc[nH]3)cc1n2C1CC1	9.9	0.06 (≈ 0.176 µM)	1 (≈ 2.93 µM)	23	16 (≈ 46.9 µM)										
COc1ccncc1-c1cc2c(cc1F)c(=O)c1c(=O)[nH]sc1n2C1CC1	10	0.023 (≈ 0.06 µM)	0.25 (≈ 0.652 µM)	50	4 (≈ 10.4 µM)										
COc1ncc(-c2cc3c(cc2F)c(=O)c2c(=O)[nH]sc2n3C2CC2)cn1	3.3	0.015 (≈ 0.039 µM)	0.13 (≈ 0.338 µM)	43	8 (≈ 20.8 µM)										
O=c1[nH]sc2c1c(=O)c1cc(F)c(-c3cncc4ccccc34)cc1n2C1CC1	> 38	0.028 (≈ 0.0694 µM)	0.48 (≈ 1.19 µM)	51	8 (≈ 19.8 µM)										
O=c1[nH]sc2c1c(=O)c1cc(F)c(-c3ccc(F)nc3)cc1n2C1CC1	12	0.015 (≈ 0.0404 µM)	0.03 (≈ 0.0808 µM)	> 100	2 (≈ 5.39 µM)	0.11 (≈ 0.296 µM)	0.125 (≈ 0.337 µM)	0.059 (≈ 0.159 µM)	3.7 (≈ 0.00996 µM)	0.125 (≈ 0.337 µM)	0.03 (≈ 0.0808 µM)	0.5 (≈ 1.35 µM)	0.125 (≈ 0.337 µM)	1 (≈ 2.69 µM)	0.125 (≈ 0.337 µM)
O=c1[nH]sc2c1c(=O)c1cc(F)c(-c3cccc4cccnc34)cc1n2C1CC1	> 40	0.13 (≈ 0.322 µM)	0.75 (≈ 1.86 µM)	79	16 (≈ 39.7 µM)										
O=c1[nH]sc2c1c(=O)c1cc(F)c(-c3cnc4ccccc4c3)cc1n2C1CC1	50	0.011 (≈ 0.0273 µM)	0.13 (≈ 0.322 µM)	> 100	8 (≈ 19.8 µM)										
Cn1ccc2cc(-c3cc4c(cc3F)c(=O)c3c(=O)[nH]sc3n4C3CC3)ccc21	3.6	0.065 (≈ 0.16 µM)	1 (≈ 2.47 µM)	> 100	8 (≈ 19.7 µM)										
Cc1ccc(-c2cc3c(cc2F)c(=O)c2c(=O)[nH]sc2n3C2CC2)c(C)n1	8	0.13 (≈ 0.341 µM)	0.5 (≈ 1.31 µM)	> 100	> 64										
O=c1[nH]sc2c1c(=O)c1cc(F)c(-c3cc4ccccc4[nH]3)cc1n2C1CC1	3.3	0.06 (≈ 0.153 µM)	1 (≈ 2.55 µM)	9	4 (≈ 10.2 µM)										
O=c1[nH]sc2c1c(=O)c1cc(F)c(-c3ccc(-n4cccc4)nc3)cc1n2C1CC1	18	0.029 (≈ 0.0693 µM)	1 (≈ 2.39 µM)	> 100	4 (≈ 9.56 µM)										
O=c1[nH]sc2c1c(=O)c1cc(F)c(-c3cccnc3F)cc1n2C1CC1	2.4	0.015 (≈ 0.0404 µM)	0.015 (≈ 0.0404 µM)	> 100											
O=c1[nH]sc2c1c(=O)c1cc(F)c(-c3ccnc(CO)c3)cc1n2C1CC1	4.8	0.034 (≈ 0.0887 µM)	0.14 (≈ 0.365 µM)	> 100	32 (≈ 83.5 µM)										
NCc1ccc(-c2cc3c(cc2F)c(=O)c2c(=O)[nH]sc2n3C2CC2)cn1	0.7	0.13 (≈ 0.34 µM)	0.059 (≈ 0.154 µM)	> 100	32 (≈ 83.7 µM)										
COc1cncc(-c2cc3c(cc2F)c(=O)c2c(=O)[nH]sc2n3C2CC2)c1	21	0.03 (≈ 0.0782 µM)	0.061 (≈ 0.159 µM)	34	4 (≈ 10.4 µM)										
